Reference: patent publication US20230301909A1 (The University of Tokyo, priority 2020, published 2023)

Tested on: human placenta
Experiment: Human placental perfusion model (ex vivo placental permeability)
Format: in vitro ADME
Conditions: FIG. 12A
Experimental: For this Example, the permeability of polymer micelles, low molecular compounds and polymers of different sizes through the human placenta was evaluated using a human placental perfusion model.
The human placental perfusion model was created according to NPL 4 (K. Shintaku et. al., Drug Metab. Dispos. 37 (2009) 962) and NPL 5 (J. R. Huston et. al., Clin, Pharmacol. Ther, 90 (2011) 67). […] DACH-platin encapsulating micelles (30 nm and 70 nm particle sizes) (DACH-platin dose: 85.4 mg/L), oxaliplatin (2.7 mg/L.) and Cy3-labeled 8-arm PEG (fluorescence intensity: 3,000 (RFU)) were perfused for 60 minutes, and 1 ml of each solution was recovered every 5 minutes from the vein on the fetus side. The platinum contents of the recovered samples from the oxaliplatin-and DACH-platin encapsulating micelle-administered groups were measured by inductively coupled […] mass spectrometry. The fluorescence intensities of the polymers were quantified by HPLC. […]
The human placental perfusion model was created according to NPL 4 (K. Shintaku et. al., Drug Metab. Dispos. 37 (2009) 962) and NPL 5 (J. R. Huston et. al., Clin. Pharmacol. Ther. 90 (2011) 67). […] The pH of the recovered sample was adjusted, releasing the nicotinamide, and the nicotinamide in the solution was measured by HPLC (detector: EXTREMA by JASCO Corp., column: TSKgel ODS-120H by Tosoh Corp., 1.9 μm). […]

O=C1[O][Pt]2([NH][C@@H]3CCCC[C@H]3[NH]2)[O]C1=O [oxaliplatin]
accumulation in the placenta (human placental perfusion): accumulation of oxaliplatin in the placenta
permeation through the placenta (perfused for 60 minutes, fetus-side vein samples): permeated the placenta
